Assay results: patent publication US20250367111A1, “DELIVERY OF SUSTAINED LOCAL AND SYSTEMIC IMMUNOMODULATION” (Northeastern University, priority 2024, published 2025)

Key:
[1] = intratumoral; 40 patients with advanced metastatic solid tumors or lymphomas; cited from earlier work
TNBC = settings: cited from earlier work
[2] = EMBRACA, cited from earlier work
[3] = system: Brca2−/−p53−/−R172H Pten−/− intraperitoneal disseminated metastatic ovarian cancer model; experiment: Survival in intraperitoneal disseminated metastatic ovarian cancer model; type: in vivo; settings: i.p.; 50 μg TLZ over 21 days (implant or equivalent dose by periodic injections)
Procedure: In a Brca2^−/−p53^−/−R172H Pten^−/− intraperitoneal disseminated metastatic ovarian cancer model, SMAART-TLZ i.p implants (50 μg TLZ release over 21 days) increased median survival to 92 days compared to periodic i.p injections of TLZ at the equivalent drug dose over 21 days (70 days median OS-FIG. 6A).

[4] = Blood cell count with Procyte Dx Analyzer after oral TLZ; type: in vivo; settings: BRCA−/− breast cancer mice, indicative of bone marrow toxicity
Description: PARPi have been limited due to induction of bone marrow toxicity.

[5] = system: mammary glands of BRCA1-deficient mice; experiment: Cancer biomarkers (PCNA, γ-H2AX) in mammary glands of BRCA1-deficient mice; type: in vivo; settings: mammary glands harvested 4 weeks after treatment
Procedure: InCeT-TLZ favorably alters cancer biomarkers compared with systemic administration or empty implants. Mammary glands were harvested 4 weeks after BRCA1-deficient mice were treated with implants (InCeT-TLZ or empty InCeT) or free TLZ. As shown in, over half of the epithelial cells in the mammary glands of mice treated with empty InCeT were positive for PCNA, confirming robust proliferation.

[6] = system: BRCA−/− model with conditional BRCA1/2, PTEN, and TP53 deletions (mFT3666); experiment: Survival in BRCA−/− mOC model (mFT3666); type: in vivo, mice; settings: free TLZ; control ~57 days
Procedure: Sustained PARP inhibition doubles survival in BRCA^−/− mOC model. Therapeutic efficacy was tested in vivo in a BRCA^−/− model with conditional BRCA1/2, PTEN, and TP53 deletions (mFT3666) that mimics late stage disseminated disease. Free TLZ slowed disease progression and extended median survival to ˜70 days, compared with control (˜57 days). These animals eventually developed severe ascites and had to be sacrificed. A InCeT-TLZ implant loaded with 50 μg of TLZ was injected into the peritoneal cavity using an 18 gauge needle every 25 days. Most of the InCeT-TLZ group of animals survived until 93 days, with some developing ascites.

Nc1ncnc2c1ncn2[C@@H]1O[C@@H]2COP(=O)([S-])O[C@@H]3[C@H](O)[C@@H](COP([O-])(=S)O[C@H]2[C@H]1O)O[C@H]3n1cnc2c(N)ncnc21.[Na+].[Na+] (stereo partly shown) [ADU-S100]
dose-limiting toxicities [1]: no dose-limiting toxicities

O=C(c1cc(Cc2n[nH]c(=O)c3ccccc23)ccc1F)N1CCN(C(=O)C2CC2)CC1 [olaparib]
overall response rate (ORR) (TNBC; human, in vivo): 59.9%
progression-free survival (PFS) (TNBC; vs. 4.2 months standard chemotherapy): 7 months

Cn1ncnc1[C@H]1c2n[nH]c(=O)c3cc(F)cc(c23)N[C@@H]1c1ccc(F)cc1 [TLZ, Talazoparib]
patients with adverse events [2]: 65%
patients with adverse events needing dose reduction below the therapeutic level ([2]; of those patients): 53%
median survival [3]: 70 days
red blood cells [4]: decrease in red blood cells
reduction of PCNA+ cells [5]: ~50%
γ-H2AX expression [5]: but not free TLZ increased γ-H2AX expression
median survival [6]: ~70 days
